Values of other authors as cited in patent US5905084A, “5-HTIF -agonists effective in treating migraine” (priority 1997, dated 1999).

How the values were obtained:
[1] = tested on: exploratory behavior in arthritic animals; conditions: Larsen and Arnt (1985)
neurogenic inflammation = conditions: Neurology, 43(suppl. 3), S16-S20 (1993)

Row | SMILES | exploratory behavior [1] | neurogenic inflammation blocked (neurogenic inflammation)
1 | CN(C)CCCC1(c2ccc(F)cc2)OCc2cc(C#N)ccc21 (centres unmarked) [citalopram] | improve exploratory behavior | –
2 | CNS(=O)(=O)Cc1ccc2[nH]cc(CCN(C)C)c2c1.O=C(O)CCC(=O)O [Compound I, 3-[2-(dimethylamino)ethyl]-N-methyl-1H-indole-5-methanesulfonamide butane-1,4-dioate (1:1)] | – | blocked
